Read-outs that look alike come from different tables or passages of the source.
Tests used:
[1] = system: forearm; assay: Irritation test on forearm / skin; format: in vivo, human; conditions: in vivo
Method: Zinc acetate was purchased from Pfaltz and Bauer (Waterbury, Connecticut). About 0.5 grams were mixed with several drops of distilled water at room temperature. […] The aqueous mixture was rubbed into an area about 3 cm in diameter on the forearm of […] and caused no irritation. Subsequently, about 0.5 grams of the salt were dissolved in a few drops of distilled water, then 10 ml K-Y Lubricating Jelly (sold by Johnson and Johnson, New Brunswick, N.J.) was added to form a gel mixture containing about 5% zinc acetate (w/v). This commercially available mixture contains purified water, hydroxyethyl-cellulose as a thickening agent, glycerin as a lubricant, glucono-delta-lactate to prevent crystallization, chlorhexidine gluconate as a preservative, and sodium hydroxide to reduce the acidity.

[2] = system: genitals (both persons, during intercourse); assay: Irritation test of lubricant during intercourse / human volunteers; format: in vivo; conditions: human, in vivo
Description: Subsequently, the gel formulation was applied topically and used as a sexual lubricant during intercourse. Both people wiped off the excess with a tissue after intercourse, but neither person showered or washed off the lubricant until the following day. It caused no irritation to either person.

[3] = cited from earlier work; for ionization rate: in aqueous solution; for Reported pK values: values below 2 refer to release of a single carboxy anion
[4] = system: several cell lines
[5] = Acidity tests: pH of 5% w/v zinc salt solutions; conditions: for pH of solution (rounded) / pH of solution: 5% w/v in distilled deionized water; for pH of solution: 0.05 subtracted from meter reading, approximately accurate
[6] = system: male genitals; assay: Irritation test on male genitals / urethra; conditions: in vivo
Method: In all examples, the test subjects were a monogamous married couple, free of genital herpes and all other known sexually transmitted viruses.
The mixture of zinc acetate in K-Y Lubricating Jelly was tested on the male genitals, passively at first and then with active rubbing.
About 0.5 grams were dissolved in several drops of distilled water and tested on the forearm and genitals.

[7] = system: vagina; assay: Irritation test in shallow region of the vagina (volunteer); format: in vivo, human; conditions: human, in vivo
[8] = system: genitals (both persons, during intercourse); conditions: cited from earlier work
[9] = system: H-9 lymphocytes; assay: Toxicity to lymphocytes; format: cell-based; conditions: at the concentrations of interest
Method: In a first set of tests, 20 mg of zinc acetate powder (ZnAc, MW 183.4) was mixed in 1 ml RPMI cell culture medium (Whittaker Corp.). This 2% (w/v) salt mixture contained 7 mg/ml elemental Zn. […] Therefore, a small quantity of HCl was added until the mixture became clear; the pH was about 5.5. The Zn concentration was reduced by half (and the pH was raised somewhat) when an equal volume (1 ml) of cell-free high-titer HIV-1 viral stock was added. The zinc/virus mixture was stirred and incubated for 2 hours at 37° C. (i.e., normal body temperature).
Following this first incubation step, the zinc/virus mixtures were diluted at 1:10, 1:30, and 1:100 ratios using culture medium, and aliquots were added to equal volumes of culture media containing H-9 lymphocytes that had been pretreated overnight with 2 μg/ml Polybreen. The lymphocyte mixtures were incubated for three hours at 37° C.; zinc concentrations during this step were 180, 60, and 18 μg/ml for the 1:10, 1:30, and 1:100 dilutions.
A 2 ml aliquot from each dilution was mixed with an equal volume of 3% ZnAc dissolved in sterile distilled water; after mixing, the zinc concentration was 5.3 mg/ml Zn. These mixtures were incubated for 2 hours, then diluted with culture medium at 1:30, 1:100, and 1:1000 to reduce the toxicity of the zinc to lymphocytes. Four ml of lymphocytes were mixed with 4 ml of each zinc/virus mixture. The zinc/virus/cell mixtures were incubated at 37° C. for 3 hours; zinc concentrations were 88, 27, and 2.7 μg/ml in the 30, 100, and 1000 dilutions.

[10] = system: sperm cells; conditions: undiluted semen; Eliasson 1971, Paz et al 1977; cited from earlier work
[11] = system: herpes simplex virus (HSV); assay: Herpes simplex virus plaque assay on CV-1 cells; conditions: in vitro tests
Method: The first step of this assay models what happens inside the vaginal cavity. In this part of the assay, the candidate anti-viral agent (such as a zinc salt) was mixed and incubated for a relatively brief period with HIV particles. […] In subsequent tests using herpes viruses (which are much easier to work with than HIV), a range of first-stage incubation times were tested, ranging from 2 hours to only 5 minutes.
Susceptible lymphocyte cells were then added to this mixture, and a second incubation step was carried out for a number of days (20 days or more, when HIV was tested; 3 days, when herpes viruses were tested in plaque assays) to determine whether zinc-treated or untreated viruses would infect the lymphocytes.
After those toxicity tests had been evaluated, the viral inhibition tests were done on CV-1 cells, an immortalized cell line originally from a monkey kidney, which is highly and reliably susceptible to herpes virus infection, and which is widely used in in vitro tests on herpes viruses.
Tests were also carried out using a range of zinc salt concentrations, from 50 mM down to 5 mM, using constant 2 hour incubation periods.

[Cl-].[Cl-].[Zn+2] [Zinc chloride]
burning, forearm [1]: immediately caused a burning sensation | irritation in initial tests [2]: significant irritation | ionization rate [3]: ~100%

O=C[O-].O=C[O-].[Zn+2] [Zinc formate]
Reported pK values: pK1 ([3]; in water): 0.6 | Reported pK values: pK2 ([3]; in water): 0.95

O=C(O)CO.O=C(O)CO.[Zn] [Zinc glycolate]
Reported pK values ([3]; in water): 1.92

CC(O)C(=O)[O-].CC(O)C(=O)[O-].[Zn+2] (stereo not shown) [Zinc lactate]
irritation during intercourse [2]: no irritation of any sort | MCC [4]: ~200 mM | Reported pK values ([3]; in water): 1.86 | pH of solution (rounded) [5]: about 6.2 | pH of solution [5]: 6.16

CCC(=O)[O-].CCC(=O)[O-].[Zn+2] [Zinc propionate]
burning and irritation to the skin [1]: substantial amount of burning and irritation to the skin | irritation, forearm [1]: no irritation | irritation, male genital skin [6]: no irritation | irritation, male genitals [6]: did not cause any irritation | irritation, urethra [6]: substantial irritation | irritation, vagina [7]: vaginal irritation | irritation, vagina / female genitals [7]: no irritation | irritation of gel / genital lubricant formulations [2]: did not cause any irritation | Reported pK values ([3]; in water): 1.01

O=S(=O)([O-])[O-].[Zn+2] [Zinc sulfate]
irritation, forearm [1]: did not cause any irritation | irritation, male genital skin [6]: did not cause any irritation | irritation, urethra [6]: did not cause any irritation | irritation, person, passive test [7]: tingling, burning sensation | irritation in initial tests [2]: significant irritation | irritation, human volunteers [2]: no noticeable irritation | ionization rate [3]: ~100% | irritation (prior art / known) ([8]; human, in vivo): substantial burning and irritation in most people | acidity relative to zinc acetate or lactate solution ([5]; 5% solutions): about 4 times | pH drop relative to zinc acetate or lactate solution ([5]; 5% solutions, from 6.2 to 5.6): 0.6 | pH of solution (rounded) [5]: about 5.6 | pH of solution [5]: 5.58

[Zn+2] [zinc]
effect on physical irritation caused by nonoxynol [2]: can actually reduce the physical irritation that is caused by nonoxynol | toxicity to lymphocytes [9]: toxic to lymphocytes | effect on sperm respiratory activity and motility [10]: suppresses the respiratory activity and motility of sperm cells

Zinc butyrate
Reported pK values ([3]; in water): 1.00

Zinc gluconate
irritation, forearm [1]: no irritation | irritation, male genitals [6]: no irritation | irritation, vagina / female genitals [7]: no irritation | abrasion during intercourse [2]: no abrasion was noticeable | MCC [4]: ~200 mM | Reported pK values ([3]; in water): 1.70 | anti-viral effect against herpes viruses [11]: clearly effective in preventing infection by herpes viruses

Zinc glycerate
Reported pK values ([3]; in water): 1.80

nonoxynol
irritation (prior art / known) ([8]; literature or general knowledge): cause irritation in many users

octoxynol
irritation (prior art / known) ([8]; human, in vivo): cause irritation in many users

Reference: US6321750A, “Condom lubricants with zinc salts as anti-viral additives” (priority 1999, dated 2001)
